Assay results taken from PubChem BioAssay AID2060330 (Molecular Pharmacology Branch, DTP, NCI, 2025).

Tested on: LG0703-F948-PDC spheroids with HUVEC/MSC, viability
Test: Anticancer human tumor LG0703-F948-PDC patient-derived lung adenocarcinoma cell line growth inhibition [IpAb]
Conditions: for IC50: curve of first compound; for viability, T/C: stronger effect = lower value
Description: Combinatorial screen of targeted agents with ipatasertib and abemaciclib in multi-cell type tumor spheroids
A high-throughput screen of multi-cell type tumor spheroids was designed to identify active combinations of targeted small molecules and ipatasertib or abemaciclib. Complex spheroids include a stromal component modeled by human endothelial cells (HUVEC) and fibroblasts modeled by human mesenchymal stem cells (MSCs). The concentration ranges selected for each drug and investigational agent were based upon clinically achievable concentrations if the clinical Cmax of the agent was known.
Compounds. The drugs and investigational agents: ipatasertib (NSC767898), abemaciclib(NSC768073), selumetinib (NSC741078), trametinib (758246), adavosertib (NSC754352), everolimus (NSC733504), sapanisertib (NSC764658), vemurafenib (NSC761431), venetoclax (NSC766270), copanlisib (NSC809693), apelisib (NSC765974), palbociblib (NSC758247), vemurafenib (NSC761431), dabrafenib (NSC764134), ravoxertinib (NSC781343), BMS-387032 (NSC767048), sotorasib (NSC818433), talazoparib (NSC767125) and afursertib (NSC778305), were obtained from the National Cancer Institute (NCI) Developmental Therapeutics Program Chemical Repository. The FDA-approved anticancer drug set is available from the NCI Developmental Therapeutics Program. […] The stock solutions were prepared in dimethyl sulfoxide (DMSO, Sigma-Aldrich, St. Louis, MO, cat. D2650) at 800-fold the tested concentration and stored at -70 degrees C prior to their use. All drugs and investigational agents were tested over a range starting from a high concentration at or near the clinical Cmax and decreasing in half-log increments. If the clinical Cmax for an agent had not been determined, the highest concentration tested was 10 microM.
NCI60 Cell Culture. NCI60 cell lines were obtained from the NCI Developmental Therapeutics Program Tumor Repository. For each lot of cells, the Repository performed Applied Biosystems AmpFLSTR Identifiler testing with PCR amplification to confirm consistency with the published Identifier STR profile for each cell line. Cells were kept in continuous culture for no more than 20 passages. The optimal seeding densities for each of the cell lines at each time point assessed were determined prior to performing the concentration response studies. Briefly, the NCI60 human tumor lines were grown as monolayers in RPMI 1640 medium supplemented with 10% FBS and 2 mmol/L L-glutamine.
An additional 9 lines were from the NCI60 cell line panel including MDA-MB-231 breast carcinoma, MDA-MB-468 breast carcinoma, MCF7 breast carcinoma, Hs578T breast carcinoma, MALME-3M melanoma, SK-MEL-2 melanoma, SK-OV-3 ovarian carcinoma, DU-145 prostate carcinoma, PC-3 prostate carcinoma, all cell lines along with major genetic alterations are listed on Table 2. Pooled donor human umbilical vein endothelial cells (HUVEC, Lonza, cat. CC-2519) and human mesenchymal stem cells (hMSC, Lonza, cat. PT-2501) were purchased from Lonza (Walkersville, MD).
PDMR cell lines were grown in complete medium (DC medium): Dulbecco's modified Eagle's medium (DMEM)/F12 supplemented with 5% fetal bovine serum (FBS), 2 mM L-glutamine, 100 U/mL penicillin and 100 µg/ml streptomycin, 0.4 µg/ml hydrocortisone, 10 ng/ml epidermal growth factor (EGF) recombinant human protein, 24 µg/mL adenine, and 0.1 mg/mL primocin. During culture from frozen stock vials, PDMR cells were cultured in the same medium containing 10 µM Y-27632 (see Table 3). The PDCs were cultured in complete DMEM/F12 media without 10 microM Y-27632 dihydrochloride for at least two passages prior to the screen. The pooled donor HUVEC and hMSC were cultured in endothelial cell growth medium 2 (PromoCell, Heidelberg, Germany, cat. C-22011) and mesenchymal stem cell growth medium 2 (PromoCell, cat. C-28009), respectively. For all experiments, HUVEC and hMSC were used at passages </=5.
[…]
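Also: spheroids exposed to compounds for seven days before readout.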
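For viability, T/C in this document: T/C percent relative to DMSO vehicle wells set as 100% viability.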

C=CCn1c(=O)c2cnc(Nc3ccc(N4CCN(C)CC4)cc3)nc2n1-c1cccc(C(C)(C)O)n1 + CC(C)NCC(C(=O)N1CCN(c2ncnc3c2C(C)CC3O)CC1)c1ccc(Cl)cc1
IC50 (second compound 0.1 µM): 704 nM | IC50 (second compound 0.316 µM): 243 nM | IC50 (second compound 1 µM): < 31.6 nM | IC50 (second compound 3.16 µM): < 31.6 nM | IC50 (second compound 10 µM): < 31.6 nM | viability, T/C (second compound 0.1 µM, first compound 0.0316 µM): 97.8% | viability, T/C (second compound 0.1 µM, first compound 0.1 µM): 94.6% | viability, T/C (second compound 0.1 µM, first compound 0.316 µM): 72.4% | viability, T/C (second compound 0.1 µM, first compound 1 µM): 40.5% | viability, T/C (second compound 0.1 µM, first compound 3.16 µM): 13.2% | viability, T/C (second compound 0.1 µM, first compound 10 µM): 4.37% | viability, T/C (second compound 0.316 µM, first compound 0.0316 µM): 75.6% | viability, T/C (second compound 0.316 µM, first compound 0.1 µM): 66.5% | viability, T/C (second compound 0.316 µM, first compound 0.316 µM): 45.6% | viability, T/C (second compound 0.316 µM, first compound 1 µM): 17.1% | viability, T/C (second compound 0.316 µM, first compound 3.16 µM): 5.97% | viability, T/C (second compound 0.316 µM, first compound 10 µM): 2.34% | viability, T/C (second compound 1 µM, first compound 0.0316 µM): 44.7% | viability, T/C (second compound 1 µM, first compound 0.1 µM): 36.7% | viability, T/C (second compound 1 µM, first compound 0.316 µM): 37.1% | viability, T/C (second compound 1 µM, first compound 1 µM): 16.5% | viability, T/C (second compound 1 µM, first compound 3.16 µM): 7.72% | viability, T/C (second compound 1 µM, first compound 10 µM): 2.58% | viability, T/C (second compound 3.16 µM, first compound 0.0316 µM): 39.3% | viability, T/C (second compound 3.16 µM, first compound 0.1 µM): 39.6% | viability, T/C (second compound 3.16 µM, first compound 0.316 µM): 28.3% | viability, T/C (second compound 3.16 µM, first compound 1 µM): 13.2% | viability, T/C (second compound 3.16 µM, first compound 3.16 µM): 6.52% | viability, T/C (second compound 3.16 µM, first compound 10 µM): 3.11% | viability, T/C (second compound 10 µM, first compound 0.0316 µM): 28.6% | viability, T/C (second compound 10 µM, first compound 0.1 µM): 24.1% | viability, T/C (second compound 10 µM, first compound 0.316 µM): 15.9% | viability, T/C (second compound 10 µM, first compound 1 µM): 5.77% | viability, T/C (second compound 10 µM, first compound 3.16 µM): 5.31% | viability, T/C (second compound 10 µM, first compound 10 µM): 6.51%

Cn1cnc2c(F)c(Nc3ccc(Br)cc3Cl)c(C(=O)NOCCO)cc21 + CC(C)NCC(C(=O)N1CCN(c2ncnc3c2C(C)CC3O)CC1)c1ccc(Cl)cc1
IC50 (second compound 0.1 µM): 12.4 nM | IC50 (second compound 0.316 µM): < 9.49 nM | IC50 (second compound 1 µM): < 9.49 nM | IC50 (second compound 3.16 µM): < 9.49 nM | IC50 (second compound 10 µM): < 9.49 nM | viability, T/C (second compound 0.1 µM, first compound 0.00949 µM): 55% | viability, T/C (second compound 0.1 µM, first compound 0.03 µM): 35.1% | viability, T/C (second compound 0.1 µM, first compound 0.0949 µM): 27.4% | viability, T/C (second compound 0.1 µM, first compound 0.3 µM): 20.1% | viability, T/C (second compound 0.1 µM, first compound 0.949 µM): 18.3% | viability, T/C (second compound 0.1 µM, first compound 3 µM): 14% | viability, T/C (second compound 0.316 µM, first compound 0.00949 µM): 36.3% | viability, T/C (second compound 0.316 µM, first compound 0.03 µM): 19.5% | viability, T/C (second compound 0.316 µM, first compound 0.0949 µM): 14.1% | viability, T/C (second compound 0.316 µM, first compound 0.3 µM): 7.81% | viability, T/C (second compound 0.316 µM, first compound 0.949 µM): 7.98% | viability, T/C (second compound 0.316 µM, first compound 3 µM): 3.28% | viability, T/C (second compound 1 µM, first compound 0.00949 µM): 21.6% | viability, T/C (second compound 1 µM, first compound 0.03 µM): 12.9% | viability, T/C (second compound 1 µM, first compound 0.0949 µM): 5.36% | viability, T/C (second compound 1 µM, first compound 0.3 µM): 3.84% | viability, T/C (second compound 1 µM, first compound 0.949 µM): 2.91% | viability, T/C (second compound 1 µM, first compound 3 µM): 1.32% | viability, T/C (second compound 3.16 µM, first compound 0.00949 µM): 13.7% | viability, T/C (second compound 3.16 µM, first compound 0.03 µM): 6.24% | viability, T/C (second compound 3.16 µM, first compound 0.0949 µM): 3.66% | viability, T/C (second compound 3.16 µM, first compound 0.3 µM): 3.22% | viability, T/C (second compound 3.16 µM, first compound 0.949 µM): 2.57% | viability, T/C (second compound 3.16 µM, first compound 3 µM): 3.42% | viability, T/C (second compound 10 µM, first compound 0.00949 µM): 7.41% | viability, T/C (second compound 10 µM, first compound 0.03 µM): 4.11% | viability, T/C (second compound 10 µM, first compound 0.0949 µM): 1.36% | viability, T/C (second compound 10 µM, first compound 0.3 µM): 2.06% | viability, T/C (second compound 10 µM, first compound 0.949 µM): 1% | viability, T/C (second compound 10 µM, first compound 3 µM): 0.28%
